pIC50: −log10 of the molar value.
Legend:
Type in all cases: cell-based
MCF7 cells = assay: Anti-proliferation (viability) of MCF7 cells (Table 7, FIG. 2B); settings: Homo sapiens, MCF7, MCF7 cells, 3-6 days, 10-point serial dilution; read-out: GI IC50 in MCF-7
Calu-1 cells = assay: Anti-proliferation (viability) of NSCLC Calu-1 cells, 3 days (Table 7, FIG. 2B); settings: Homo sapiens, 72 h; Calu-1 cells, 3 days, 10-point serial dilution; read-out: GI IC50 in Calu-1
How it was run: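 Treatment length differs by line: Calu-1 cells receive degrader for 3 days, T47D cells for 6 days, each over a 10-point dilution series. A warhead-modified analogue with unchanged DDB1 binder and linker served as the non-CDK4-binding control.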

CDK4 [1] = biological target: T1, CDK4 (Homo sapiens, UniProt P11802+Q16531); assay: CDK4 percentage degradation in Calu-1 cells (Table 6); design: Cells that express cyclin D1-3 and CDK4/6 proteins were treated with heterobifunctional compounds; endogenous in cells; host or cells: Calu-1; settings: 16 hours; for inhibition at 0.04 µM: 40 nM; for inhibition at 0.2 µM: 200 nM
How it was run: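 Percentage degradation of Cyclin D1 and CDK4 derived from densitometry of ECL Western blots on lysates of Calu-1 cells. Treatment was 16 h with compound at either 40 nM or 200 nM.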
Target sequence in this assay (P11802 2-303 limits assumed): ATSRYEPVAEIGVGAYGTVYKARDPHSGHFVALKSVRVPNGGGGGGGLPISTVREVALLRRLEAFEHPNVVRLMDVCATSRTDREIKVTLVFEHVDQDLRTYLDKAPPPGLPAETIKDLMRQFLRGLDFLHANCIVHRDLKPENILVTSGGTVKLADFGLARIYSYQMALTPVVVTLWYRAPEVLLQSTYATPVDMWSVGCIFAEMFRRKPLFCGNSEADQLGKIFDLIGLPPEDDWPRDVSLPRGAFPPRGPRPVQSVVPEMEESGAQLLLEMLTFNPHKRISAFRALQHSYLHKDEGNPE
Target sequence in this assay (P24385 whole entry partner): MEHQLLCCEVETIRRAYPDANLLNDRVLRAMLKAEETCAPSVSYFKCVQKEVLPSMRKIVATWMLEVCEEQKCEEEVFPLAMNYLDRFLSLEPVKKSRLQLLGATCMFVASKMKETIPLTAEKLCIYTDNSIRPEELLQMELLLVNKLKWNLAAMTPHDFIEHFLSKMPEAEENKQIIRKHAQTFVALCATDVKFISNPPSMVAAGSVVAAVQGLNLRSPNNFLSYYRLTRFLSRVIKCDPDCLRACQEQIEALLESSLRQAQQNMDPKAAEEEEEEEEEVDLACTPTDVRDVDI
Target sequence in this assay (Q16531 2-1140 limits assumed): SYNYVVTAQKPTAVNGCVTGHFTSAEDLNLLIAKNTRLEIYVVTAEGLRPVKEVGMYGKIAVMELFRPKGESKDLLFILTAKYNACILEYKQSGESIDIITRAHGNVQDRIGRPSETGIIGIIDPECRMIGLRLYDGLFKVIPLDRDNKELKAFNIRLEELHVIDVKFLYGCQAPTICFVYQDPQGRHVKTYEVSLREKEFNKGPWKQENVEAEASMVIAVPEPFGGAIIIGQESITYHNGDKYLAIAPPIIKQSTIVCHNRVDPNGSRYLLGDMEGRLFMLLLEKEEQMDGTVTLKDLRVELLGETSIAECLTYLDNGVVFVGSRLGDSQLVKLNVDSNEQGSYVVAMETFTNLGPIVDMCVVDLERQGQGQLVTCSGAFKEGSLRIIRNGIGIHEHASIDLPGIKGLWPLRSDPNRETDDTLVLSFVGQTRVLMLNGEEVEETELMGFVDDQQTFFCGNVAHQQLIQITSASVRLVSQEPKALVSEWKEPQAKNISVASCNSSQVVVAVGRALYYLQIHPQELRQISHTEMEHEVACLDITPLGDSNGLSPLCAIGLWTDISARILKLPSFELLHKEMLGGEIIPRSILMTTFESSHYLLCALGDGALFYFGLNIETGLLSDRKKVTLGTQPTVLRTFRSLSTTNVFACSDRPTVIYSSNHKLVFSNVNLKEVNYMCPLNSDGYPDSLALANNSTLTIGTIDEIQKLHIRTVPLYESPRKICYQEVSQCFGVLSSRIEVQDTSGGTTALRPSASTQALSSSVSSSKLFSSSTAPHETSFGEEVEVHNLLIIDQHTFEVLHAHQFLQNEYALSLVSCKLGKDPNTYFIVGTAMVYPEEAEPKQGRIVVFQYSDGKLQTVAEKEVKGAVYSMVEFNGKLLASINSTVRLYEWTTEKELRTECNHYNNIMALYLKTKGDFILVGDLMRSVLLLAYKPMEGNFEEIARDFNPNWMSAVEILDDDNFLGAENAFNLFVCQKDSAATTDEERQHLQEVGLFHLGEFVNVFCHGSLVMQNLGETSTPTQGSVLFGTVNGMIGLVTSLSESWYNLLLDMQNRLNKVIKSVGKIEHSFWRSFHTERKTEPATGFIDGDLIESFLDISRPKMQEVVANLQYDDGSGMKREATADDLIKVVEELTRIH

CDK4 [2] = biological target: T1, CDK4; assay: HiBiT detection of HiBiT-tagged CDK4 protein level in MCF7 cells, 16 hours (Table 8); design: expressed in transfected cells; host or cells: MCF7; settings: MCF7 cells stably expressing HiBiT tagged target proteins; for activity at 0.01 µM: 10 nM, read-out: % CDK4 Relative Level (10 nM); for activity at 0.1 µM: 100 nM, read-out: % CDK4 Relative Level (100 nM)
Procedure: HiBiT detection system quantitatively measures total amounts of HiBiT-tagged proteins using a luminescent based method. MCF7 cells stably expressing HiBiT tagged target proteins were treated with heterobifunctional compounds at indicated concentrations for 16 hours, then lysed with Nano-Glo HiBiT Lytic detection reagents.
Target sequence in this assay (P11802 whole entry): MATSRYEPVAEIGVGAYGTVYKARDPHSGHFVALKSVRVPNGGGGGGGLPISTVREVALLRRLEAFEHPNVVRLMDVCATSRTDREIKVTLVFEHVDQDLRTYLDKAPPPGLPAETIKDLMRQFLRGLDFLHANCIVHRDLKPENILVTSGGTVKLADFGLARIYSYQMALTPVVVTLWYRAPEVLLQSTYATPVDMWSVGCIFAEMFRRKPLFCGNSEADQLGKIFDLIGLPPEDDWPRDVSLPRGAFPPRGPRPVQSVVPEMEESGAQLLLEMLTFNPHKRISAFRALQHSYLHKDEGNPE
Target sequence in this assay (P24385 whole entry partner): as the sequence (P24385 whole entry partner) above
Target sequence in this assay (Q16531 2-1140 limits assumed): as the sequence (Q16531 2-1140 limits assumed) above

| SMILES | pIC50 (MCF7 cells) | pIC50 (Calu-1 cells) | inhibition at 0.04 µM (CDK4 [1]) [%] | inhibition at 0.2 µM (CDK4 [1]) [%] | activity at 0.01 µM (CDK4 [2]) [%] | activity at 0.1 µM (CDK4 [2]) [%] |
| --- | --- | --- | --- | --- | --- | --- |
| CC(=O)c1c(C)c2cnc(Nc3ccc(N4CCN(CC(=O)NC5CC6(C5)CC(Nc5nc(NC(C)C)ccc5C(=O)Nc5cccc(C)n5)C6)CC4)cn3)nc2n(C2CCCC2)c1=O (centres unmarked) [CPD-190, 2-((6-(2-(4-(6-((6-acetyl-8-cyclopentyl-5-methyl-7-oxo-7,8-dihydropyrido[2,3-d]pyrimidin-2-yl)amino)pyridin-3-yl)piperazin-1-yl)acetamido)spiro[3.3]heptan-2-yl)amino)-6-(isopropylamino)-N-(6-methylpyridin-2-yl)nicotinamide] | 7.00 to 7.30 | ≥ 8.00 | 50 to 80 | 50 to 80 | – | – |
| CC(=O)c1c(C)c2cnc(Nc3ccc(N4CCN(CC(=O)NC5CC6(C5)CC(Nc5nc(NC(C)C)ccc5C(=O)Nc5cc(C)on5)C6)CC4)cn3)nc2n(C2CCCC2)c1=O (centres unmarked) [CPD-199, 2-((6-(2-(4-(6-((6-acetyl-8-cyclopentyl-5-methyl-7-oxo-7,8-dihydropyrido[2,3-d]pyrimidin-2-yl)amino)pyridin-3-yl)piperazin-1-yl)acetamido)spiro[3.3]heptan-2-yl)amino)-6-(isopropylamino)-N-(5-methylisoxazol-3-yl)nicotinamide] | 7.00 to 7.30 | ≥ 8.00 | 50 to 80 | 50 to 80 | – | – |
| CNc1ccc(C(=O)Nc2ccc(N(C)C)nn2)c(NC2CCN(C(=O)CN3CCN(c4ccc(Nc5ncc6c(C)c(C(C)=O)c(=O)n(C7CCCC7)c6n5)nc4)CC3)CC2)n1 [CPD-200, 2-((1-(2-(4-(6-((6-acetyl-8-cyclopentyl-5-methyl-7-oxo-7,8-dihydropyrido[2,3-d]pyrimidin-2-yl)amino)pyridin-3-yl)piperazin-1-yl)acetyl)piperidin-4-yl)amino)-N-(6-(dimethylamino)pyridazin-3-yl)-6-(methylamino)nicotinamide] | 7.00 to 7.30 | ≥ 8.00 | 50 to 80 | 50 to 80 | – | – |
| [2H]C([2H])([2H])Nc1ccc(C(=O)Nc2cc(C)n(C)n2)c(NC2CC(CNC(=O)CN3CCN(c4ccc(Nc5ncc6c(C)c(C(C)=O)c(=O)n(C7CCCC7)c6n5)nc4)CC3)C2)n1 (centres unmarked) [CPD-206, 2-((3-((2-(4-(6-((6-acetyl-8-cyclopentyl-5-methyl-7-oxo-7,8-dihydropyrido[2,3-d]pyrimidin-2-yl)amino)pyridin-3-yl)piperazin-1-yl)acetamido)methyl)cyclobutyl)amino)-N-(1,5-dimethyl-1H-pyrazol-3-yl)-6-((methyl-d3)amino)nicotinamide] | < 7.00 | ≥ 8.00 | 50 to 80 | 50 to 80 | – | – |
| CNc1ccc(C(=O)Nc2ccc(N(C)C)nn2)c(NC2CC3(C2)CN(C(=O)C(F)(F)CN2CCN(c4ccc(Nc5ncc6c(C)c(C(C)=O)c(=O)n(C7CCCC7)c6n5)nc4)CC2)C3)n1 [CPD-208, 2-((2-(3-(4-(6-((6-acetyl-8-cyclopentyl-5-methyl-7-oxo-7,8-dihydropyrido[2,3-d]pyrimidin-2-yl)amino)pyridin-3-yl)piperazin-1-yl)-2,2-difluoropropanoyl)-2-azaspiro[3.3]heptan-6-yl)amino)-N-(6-(dimethylamino)pyridazin-3-yl)-6-(methylamino)nicotinamide] | > 7.30 | ≥ 8.00 | 50 to 80 | > 80 | – | – |
| [2H]C([2H])([2H])Nc1ccc(C(=O)Nc2ccc(N(C)C)nn2)c(NC2CC3(C2)CN(C(=O)C(C)N2CCN(Cc4ccc(Nc5ncc6c(C)c(C(C)=O)c(=O)n(C7CCCC7)c6n5)nc4)CC2)C3)n1 (centres unmarked) [CPD-456, 2-((2-(2-(4-((6-((6-acetyl-8-cyclopentyl-5-methyl-7-oxo-7,8-dihydropyrido[2,3-d]pyrimidin-2-yl)amino)pyridin-3-yl)methyl)piperazin-1-yl)propanoyl)-2-azaspiro[3.3]heptan-6-yl)amino)-N-(6-(dimethylamino)pyridazin-3-yl)-6-((methyl-d3)amino)nicotinamide] | > 7.30 | ≥ 8.00 | – | – | 55 to 85 | 55 to 85 |
| CC(=O)c1c(C)c2cnc(Nc3ccc(N4CCN(C5CCN(C(=O)N6CCC(Nc7nc(NC(C)C)ccc7C(=O)Nc7ccc(N(C)C)nn7)CC6)C5)CC4)cn3)nc2n(C2CCCC2)c1=O (centres unmarked) [CPD-469, 2-((1-(3-(4-(6-((6-acetyl-8-cyclopentyl-5-methyl-7-oxo-7,8-dihydropyrido[2,3-d]pyrimidin-2-yl)amino)pyridin-3-yl)piperazin-1-yl)pyrrolidine-1-carbonyl)piperidin-4-yl)amino)-N-(6-(dimethylamino)pyridazin-3-yl)-6-(isopropylamino)nicotinamide] | > 7.30 | ≥ 8.00 | – | – | ≤ 55 | ≤ 55 |
| CC(=O)c1c(C)c2cnc(Nc3ccc(CN4CCN(CC(=O)NC5CC6(C5)CC(Nc5nc(NC(C)C)ccc5C(=O)Nc5ccc(N(C)C)nn5)C6)CC4)cn3)nc2n(C2CCCC2)c1=O (centres unmarked) [CPD-472, 2-((6-(2-(4-((6-((6-acetyl-8-cyclopentyl-5-methyl-7-oxo-7,8-dihydropyrido[2,3-d]pyrimidin-2-yl)amino)pyridin-3-yl)methyl)piperazin-1-yl)acetamido)spiro[3.3]heptan-2-yl)amino)-N-(6-(dimethylamino)pyridazin-3-yl)-6-(isopropylamino)nicotinamide] | > 7.30 | ≥ 8.00 | – | – | 55 to 85 | ≤ 55 |
| CC(=O)c1c(C)c2cnc(Nc3ccc(CN4CCN(CC(=O)NC5CCC(Nc6nc(NC(C)C)ccc6C(=O)Nc6ccc(N(C)C)nn6)CC5)CC4)cn3)nc2n(C2CCCC2)c1=O (centres unmarked) [CPD-473, 2-((4-(2-(4-((6-((6-acetyl-8-cyclopentyl-5-methyl-7-oxo-7,8-dihydropyrido[2,3-d]pyrimidin-2-yl)amino)pyridin-3-yl)methyl)piperazin-1-yl)acetamido)cyclohexyl)amino)-N-(6-(dimethylamino)pyridazin-3-yl)-6-(isopropylamino)nicotinamide] | > 7.30 | ≥ 8.00 | – | – | > 85 | > 85 |
| CC(=O)c1c(C)c2cnc(Nc3ccc(N4CCN(C5CCN(C(=O)[C@H]6CC[C@H](Nc7nc(NC(C)C)ccc7C(=O)Nc7cc(C)n(C)n7)CC6)C5)CC4)cn3)nc2n(C2CCCC2)c1=O (some centres unmarked) [CPD-478, 2-((4-(3-(4-(6-((6-acetyl-8-cyclopentyl-5-methyl-7-oxo-7,8-dihydropyrido[2,3-d]pyrimidin-2-yl)amino)pyridin-3-yl)piperazin-1-yl)pyrrolidine-1-carbonyl)cyclohexyl)amino)-N-(1,5-dimethyl-1H-pyrazol-3-yl)-6-(isopropylamino)nicotinamide] | > 7.30 | ≥ 8.00 | – | – | > 85 | 55 to 85 |
| CC(=O)c1c(C)c2cnc(Nc3ccc(N4CCN(C5CCN(C(=O)[C@H]6CC[C@H](Nc7nc(NC(C)C)ccc7C(=O)Nc7cn(C)c(C8CC8)n7)CC6)C5)CC4)cn3)nc2n(C2CCCC2)c1=O (some centres unmarked) [CPD-481, 2-((4-(3-(4-(6-((6-acetyl-8-cyclopentyl-5-methyl-7-oxo-7,8-dihydropyrido[2,3-d]pyrimidin-2-yl)amino)pyridin-3-yl)piperazin-1-yl)pyrrolidine-1-carbonyl)cyclohexyl)amino)-N-(2-cyclopropyl-1-methyl-1H-imidazol-4-yl)-6-(isopropylamino)nicotinamide] | > 7.30 | ≥ 8.00 | – | – | > 85 | > 85 |
| CC(=O)c1c(C)c2cnc(Nc3ccc(CN4CCN(CC(=O)N5CCC6(CCC(Nc7nc(NC(C)C)ccc7C(=O)Nc7ccc(N(C)C)nn7)C6)C5)CC4)cn3)nc2n(C2CCCC2)c1=O (centres unmarked) [CPD-487, 2-((2-(2-(4-((6-((6-acetyl-8-cyclopentyl-5-methyl-7-oxo-7,8-dihydropyrido[2,3-d]pyrimidin-2-yl)amino)pyridin-3-yl)methyl)piperazin-1-yl)acetyl)-2-azaspiro[4.4]nonan-7-yl)amino)-N-(6-(dimethylamino)pyridazin-3-yl)-6-(isopropylamino)nicotinamide] | > 7.30 | ≥ 8.00 | – | – | 55 to 85 | 55 to 85 |
| [2H]C([2H])([2H])Nc1ccc(C(=O)Nc2ccc(N(C)C)nn2)c(NC2CCN(CC(=O)N3CCN(Cc4ccc(Nc5ncc6c(C)c(C(C)=O)c(=O)n(C7CCCC7)c6n5)nc4)CC3)CC2)n1 [CPD-491] | > 7.30 | ≥ 8.00 | – | – | > 85 | > 85 |
| CCc1ccc(C(=O)Nc2ccc(N(C)C)nn2)c(N[C@H]2CC[C@H](C(=O)N3CCC(N4CCN(c5ccc(Nc6ncc7c(C)c(C(C)=O)c(=O)n(C8CCCC8)c7n6)nc5)CC4)C3)CC2)n1 (some centres unmarked) [CPD-492, 2-((4-(3-(4-(6-((6-acetyl-8-cyclopentyl-5-methyl-7-oxo-7,8-dihydropyrido[2,3-d]pyrimidin-2-yl)amino)pyridin-3-yl)piperazin-1-yl)pyrrolidine-1-carbonyl)cyclohexyl)amino)-N-(6-(dimethylamino)pyridazin-3-yl)-6-ethylnicotinamide] | > 7.30 | ≥ 8.00 | – | – | > 85 | > 85 |

From patent US20260297081A1, “COMPOUNDS AND METHODS OF TREATING CANCERS” (Cullgen Inc., priority 2023, published 2026)
